Data reported in patent US8785486B2, “Imidazo[1,2-A]pyridine derivatives and their use as positive allosteric modulators of mGluR2 receptors” (Janssen Pharmaceuticals, Inc., priority 2007, dated 2014).

Legend:
human mGluR2 receptor = target: T1, human mGluR2 receptor (Homo sapiens, UniProt Q14416); experiment: [35S]GTPγS binding assay (PAM assay) using membranes from cells transfected with the human mGluR2 receptor; assay type: biochemical; settings: membranes of CHO cells with human mGluR2, glutamate at predetermined EC25 concentration, averages of duplicate values of 11-concentration response curves; for EC50: read-out: GTPγS - hR2 PAM pEC50 (converted)
T1 construct: expressed in transfected cells; host or cells: CHO cells
Experimental: The [^35S]GTPγS binding assay is a functional membrane-based assay used to study G-protein coupled receptor (GPCR) function whereby incorporation of a non-hydrolysable form of GTP, [^35S]GTPγS (guanosine 5′-triphosphate, labelled with […] ^35S), is measured.
CHO-cells were cultured to pre-confluence and stimulated with 5 mM butyrate for 24 hours, prior to washing in PBS, and then collection by scraping in homogenisation buffer (50 mM Tris-HCl buffer, pH 7.4, 4° C.). Cell lysates were homogenized briefly (15 s) using an ultra-turrax homogenizer. The homogenate was centrifuged at 23 500×g for 10 minutes and the supernatant discarded. The pellet was resuspended in 5 mM Tris-HCl, pH 7.4 and centrifuged again (30 000×g, 20 min, 4° C.). The final pellet was resuspended in 50 mM HEPES, pH 7.4 and stored at −80° C. in appropriate aliquots before use. Protein concentration was determined by the Bradford method (Bio-Rad, USA) with bovine serum albumin as standard.
Measurement of mGluR2 positive allosteric modulatory activity of test compounds in membranes containing human mGluR2 was performed using frozen membranes that were thawed and briefly homogenised prior to pre-incubation in 96-well microplates (15 μg/assay well, 30 minutes, 30° C.) in assay buffer (50 mM HEPES pH 7.4, 100 mM NaCl, 3 mM MgCl2, 50 μM GDP, 10 μg/ml saponin,) with increasing concentrations of positive allosteric modulator (from 0.3 nM to 50 μM) and either a minimal pre-determined concentration of glutamate (PAM assay), or no added glutamate. […] After addition of [^35S]GTPγS (0.1 nM, f.c.) to achieve a total reaction volume of 200 μl, microplates were shaken briefly and further incubated to allow [^35S]GTPγS incorporation on activation (30 minutes, 30° C.). The reaction was stopped by rapid vacuum filtration over glass-fibre filter plates (Unifilter 96-well GF/B filter plates, Perkin-Elmer, Downers Grove, USA) microplate using a 96-well plate cell harvester (Filtermate, Perkin-Elmer, USA), and then by washing three times with 300 μl of ice-cold wash buffer (Na2PO4.2H2O 10 mM, NaH2PO4.H2O 10 mM, pH=7.4). Filters were then air-dried, and 40 μl of liquid scintillation cocktail (Microscint-O) was added to each well, and membrane-bound [^35S]GTPγS was measured in a 96-well scintillation plate reader (Top-Count, Perkin-Elmer, USA). Non-specific [^35S]GTPγS binding is determined in the presence of cold 10 μM GTP. Each curve was performed at least once using duplicate sample per data point and at 11 concentrations.
The concentration-response curves of representative compounds of the present invention in the presence of added EC25 of mGluR2 agonist glutamate to determine positive allosteric modulation (PAM), were generated using the Prism GraphPad software (Graph Pad Inc, San Diego, USA). The curves were fitted to a four-parameter logistic equation (Y=Bottom+(Top-Bottom)/(1+10^((Log EC50−X)*Hill Slope) allowing determination of EC50 values. The EC50 is the concentration of a compound that causes a half-maximal potentiation of the glutamate response. This is calculated by subtracting the maximal responses of glutamate in presence of a fully saturating concentration of a positive allosteric modulator from the response of glutamate in absence of a positive allosteric modulator. The concentration producing the half-maximal effect is then calculated as EC50

T1 sequence (Q14416 19-872): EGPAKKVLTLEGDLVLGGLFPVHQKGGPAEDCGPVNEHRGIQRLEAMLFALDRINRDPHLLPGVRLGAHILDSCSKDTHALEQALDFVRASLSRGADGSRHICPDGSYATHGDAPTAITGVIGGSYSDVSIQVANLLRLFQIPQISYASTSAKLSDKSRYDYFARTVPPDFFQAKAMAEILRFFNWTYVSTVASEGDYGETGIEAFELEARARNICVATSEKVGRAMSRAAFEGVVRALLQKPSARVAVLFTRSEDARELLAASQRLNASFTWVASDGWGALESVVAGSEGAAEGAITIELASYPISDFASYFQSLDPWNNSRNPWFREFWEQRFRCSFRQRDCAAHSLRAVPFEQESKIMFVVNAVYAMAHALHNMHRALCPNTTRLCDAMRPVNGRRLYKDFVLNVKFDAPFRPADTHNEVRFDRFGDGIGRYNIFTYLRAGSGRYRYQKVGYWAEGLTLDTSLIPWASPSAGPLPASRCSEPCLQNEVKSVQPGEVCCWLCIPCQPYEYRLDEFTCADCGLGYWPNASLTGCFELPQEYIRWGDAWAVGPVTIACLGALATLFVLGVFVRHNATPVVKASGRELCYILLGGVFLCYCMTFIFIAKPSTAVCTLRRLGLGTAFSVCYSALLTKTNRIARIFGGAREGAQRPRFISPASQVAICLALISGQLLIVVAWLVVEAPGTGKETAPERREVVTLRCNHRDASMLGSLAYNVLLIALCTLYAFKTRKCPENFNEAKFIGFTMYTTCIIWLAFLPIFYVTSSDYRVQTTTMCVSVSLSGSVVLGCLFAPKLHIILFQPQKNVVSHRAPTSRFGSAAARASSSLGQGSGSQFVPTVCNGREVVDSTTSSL

SMILES | EC50 (human mGluR2 receptor) | melting point | GTPγS - hR2 PAM pEC50 (human mGluR2 receptor)
N#Cc1c(N2CCC(c3ccccc3)CC2)ccn2c(CCCC(F)(F)F)cnc12 [Example 28, 7-(4-Phenyl-piperidin-1-yl)-3-(4,4,4-trifluoro-butyl)-imidazo[1,2-a]pyridine-8-carbonitrile] | 132 nM | 128.5 °C | –
N#Cc1c(-c2ccc(NC3CCOCC3)c(Cl)c2)ccn2c(CC(F)(F)F)cnc12 [Example 92] | – | 230.7 °C | 6.15
FC(F)(F)Cc1cnc2c(Cl)c(-c3ccc(NC4CCOCC4)c(Cl)c3)ccn12 [Example 99] | 631 nM | 149.7 °C | –
CCCc1cnc2c(C#N)c(N3CCC(c4cccc(C(F)(F)F)c4)CC3)ccn12 [Example 5] | 107 nM | 126.8 to 131 °C | –
Cc1cc(Oc2ccc(-c3ccn4c(CCC5CC5)cnc4c3C#N)cc2F)ccn1 [Example 75] | 372 nM | 277.2 °C | –
C[C@]1(O)CC[C@@H](Nc2ccc(-c3ccn4c(CC(F)(F)F)cnc4c3C#N)cc2Cl)CC1 [Example 89] | 275 nM | 161.6 °C | –
N#Cc1c(N2CCC(F)(c3ccccc3)CC2)ccn2c(CC(F)(F)F)cnc12 [Example 68, 7-(4-Fluoro-4-phenyl-piperidin-1-yl)-3-(2,2,2-trifluoro-ethyl)-imidazo[1,2-a]pyridine-8-carbonitrile] | 93.3 nM | 214 °C | –
CC(C)(O)C1CCN(c2ccc(-c3ccn4c(CC(F)(F)F)cnc4c3C#N)cc2)CC1 [Example 112] | 676 nM | 174 °C | –
CCc1cnc2c(C#N)c(N3CCC(O)(c4ccccc4)CC3)ccn12 [Example 16] | 1000 nM | 265 °C | –
CCCc1cnc2c(C#N)c(N3CCN(c4nc(C)cc(C)n4)CC3)ccn12 [Example 14] | – | 194.4 °C | 6.19
N#Cc1c(N2CCC(c3cccc(C(F)(F)F)c3)CC2)ccn2c(CC(F)(F)F)cnc12 [Example 32] | 81.3 nM | > 300 °C | –
FC(F)(F)Cc1cnc2c(Cl)c(N3CCC4(CC3)OCc3ccccc34)ccn12 [Example 66] | 282 nM | 174.4 °C | –
CC(C)(O)c1ccccc1C1CCN(c2ccn3c(CC(F)(F)F)cnc3c2C#N)CC1 [Example 67, 7-{4-[2-(1-Hydroxy-1-methyl-ethyl)-phenyl]-piperidin-1-yl}-3-(2,2,2-trifluoro-ethyl)-imidazo[1,2-a]pyridine-8-carbonitrile] | 145 nM | 227.5 °C | –
N#Cc1c(N2CCC3(CCc4ccccc4O3)CC2)ccn2c(CC(F)(F)F)cnc12 [Example 115] | 214 nM | 198.7 °C | –
N#Cc1c(-c2ccc(N[C@H]3CC[C@H](O)CC3)cc2)ccn2c(CC(F)(F)F)cnc12 [Example 91, 7-[4-(4-hydroxy-cyclohexylamino)-phenyl]-3-(2,2,2-trifluoro-ethyl)-imidazo[1,2-a]pyridine-8-carbonitrile] | 1120 nM | 137.5 °C | –
N#Cc1c(N2CCc3c(oc4ccccc34)C2)ccn2c(CC(F)(F)F)cnc12 [Example 116] | 174 nM | 252.5 °C | –
O[C@H]1CC[C@H](Nc2ccc(-c3ccn4c(CC(F)(F)F)cnc4c3Cl)cc2Cl)CC1 [Example 101, 4-{2-Chloro-4-[8-chloro-3-(2,2,2-trifluoro-ethyl)-imidazo[1,2-a]pyridin-7-yl]phenylamino}-cyclohexanol] | 155 nM | 183.1 °C | –
N#Cc1c(N2CCC(O)(c3ccccc3F)CC2)ccn2c(CC(F)(F)F)cnc12 [Example 62] | 166 nM | 289.8 °C | –
N#Cc1c(N2CCC(c3ccc(F)cc3F)CC2)ccn2c(CC(F)(F)F)cnc12 [Example 33] | 61.7 nM | 186.5 °C | –
N#Cc1c(N2CCC(c3ccccc3)CC2)ccn2c(-c3ccc(F)cc3F)cnc12 [Example 47] | 229 nM | 267 °C | –
CCCc1cnc2c(C#N)c(-c3ccc(Oc4ccnc(C)c4)cc3)ccn12 [Example 11] | 427 nM | 181.8 °C | –
N#Cc1c(-c2ccc(Oc3ccc(F)cc3)cc2)ccn2c(CC(F)(F)F)cnc12 [Example 74] | 170 nM | 163 °C | –
N#Cc1c(-c2ccc(C(F)c3ccccc3)cc2)ccn2c(CC(F)(F)F)cnc12 (stereo not drawn) [Example 79] | 257 nM | 173.4 °C | –
CC(C)(O)c1ccc(C2CCN(c3ccn4c(CC(F)(F)F)cnc4c3Cl)CC2)cc1 [Example 63] | 389 nM | 189.3 °C | –
